The text below walks through data of ChEMBL document CHEMBL5346975, “Conjugation of Vancomycin with a Single Arginine Improves Efficacy against Mycobacteria by More Effective Peptidoglycan Targeting” (2023).

Holding throughout (assay type): functional
The subject of assay [1] is Mycolicibacterium smegmatis. In words: Antibiofilm activity against Mycobacterium smegmatis 700084 assessed as eradication of preformed bacterial biofilm incubated for 24 hrs by crystal violet staining based assay.
The test system of assay [2] is Mycolicibacterium smegmatis. Nature of the assay: Inhibition of peptidoglycan biosynthesis in Mycobacterium smegmatis 700084 assessed as increase in N-glycolyl modified precursor UDP-MurNGlyc-pentapeptide accumulation at 10 uM incubated for 4 hrs by RP-HPLC method.
Assay [3] concerns Mycolicibacterium smegmatis. In words: Antibacterial activity of against Mycobacterium smegmatis 700084 assessed as Ac-Kaa-induced neutralization of antibiotic effect by measuring molar excess ratio of smallest concentration of AC-Kaa required to neutralize antibiotic effect to MIC of antibiotic at 16 uM incubated for 48 hrs by resazurin dye based broth microdilution method. A general note: Resazurin is reduced to fluorescent resorufin, in cell work by metabolically active cells.

Assay [4] relates to Mycobacterium avium. Nature of the assay: Antibacterial activity against Mycobacterium avium 25291 assessed as inhibition of bacterial growth incubated for 6 to 7 days by resazurin dye based broth microdilution method. Particulars: time 6-7 day.
In assay [5] the test system is Corynebacterium glutamicum. Nature of the assay: Antibacterial activity of against Corynebacterium glutamicum 13032 assessed as Ac-Kaa-induced neutralization of antibiotic effect by measuring molar excess ratio of smallest concentration of AC-Kaa required to neutralize antibiotic effect to MIC of antibiotic at 0.25 uM incubated for 48 hrs by resazurin dye based broth microdilution method.

The test system of assay [6] is Bacillus subtilis. Nature of the assay: Antibacterial activity against Bacillus subtilis 23857 assessed as inhibition of bacterial growth incubated for 18 to 20 hrs by broth microdilution method. Particulars: time 18-20 hrs. Background: Dilution methods test growth across graded concentrations, often in twofold steps.
The test system of assay [7] is Mycolicibacterium smegmatis. Nature of the assay: Inhibition of biofilm formation in Mycobacterium smegmatis 700084 assessed as reduction in wrinkled pellicle formation incubated for 5 days. Particulars: time 5 day.
The test system of assay [8] is Mycolicibacterium smegmatis. Nature of the assay: Antibacterial activity against Mycobacterium smegmatis 700084 assessed as inhibition of bacterial growth incubated for 48 hrs by resazurin dye based broth microdilution method.
Assay [9] deals with Mycobacteroides abscessus. In words: Antibacterial activity against Mycobacterium abscessus 19977 assessed as elimination of viable bacteria at 2 times MIC measured after 50 hrs by time kill assay relative to control.
Assay [10] concerns Corynebacterium glutamicum. Nature of the assay: Antibacterial activity against Corynebacterium glutamicum 13032 assessed as inhibition of bacterial growth incubated for 18 to 20 hrs by broth microdilution method. The note with it: time 18-20 hrs.
Assay [11] relates to Mycobacterium avium. In words: Antibacterial activity against Mycobacterium avium 700898 assessed as inhibition of bacterial growth incubated for 6 to 7 days by resazurin dye based broth microdilution method. Particulars: time 6-7 day.
In a further assay the test system is Mycobacterium kansasii. Nature of the assay: Antibacterial activity against Mycobacterium kansasii 12478 assessed as inhibition of bacterial growth incubated for 6 to 7 days by resazurin dye based broth microdilution method. The note with it: time 6-7 day.
The subject of assay [12] is Mycobacteroides abscessus. Nature of the assay: Synergistic antibacterial activity against Mycobacterium abscessus 19977 assessed as test compound MIC incubated for 72 hrs in presence of 78 uM ethambutol by checkerboard assay.
The test system of assay [13] is Mycolicibacterium smegmatis. In words: Synergistic antibacterial activity against Mycobacterium smegmatis 700084 assessed as fractional inhibitory concentration index incubated for 48 hrs in presence of ethambutol by checkerboard assay.
Assay [14] concerns Mycobacteroides abscessus. Nature of the assay: Synergistic antibacterial activity against Mycobacterium abscessus 19977 assessed as fractional inhibitory concentration index incubated for 72 hrs in presence of ethambutol by checkerboard assay.
Assay [15] relates to Bacillus subtilis. Nature of the assay: Antibacterial activity of against Bacillus subtilis 23857 assessed as Ac-Kaa-induced neutralization of antibiotic effect by measuring molar excess ratio of smallest concentration of AC-Kaa required to neutralize antibiotic effect to MIC of antibiotic at 0.25 uM incubated for 48 hrs by resazurin dye based broth microdilution method.
The test system of assay [16] is Mycobacteroides abscessus. In words: Synergistic antibacterial activity against Mycobacterium abscessus 19977 assessed as test compound MIC incubated for 72 hrs in presence of 39 uM ethambutol by checkerboard assay.
Assay [17] deals with Mycobacteroides abscessus. Nature of the assay: Antibacterial activity against Mycobacterium abscessus 19977 assessed as inhibition of bacterial growth incubated for 72 hrs by resazurin dye based broth microdilution method.

Broadly, the MIC is the lowest concentration that inhibits growth of the organism.

In brackets after ≈: the same amount, converted by molar mass. Activity calls are given as the source filed them. The rule behind the calls is not given here. Bounds are passed on as bounds.

In the case of `CC[C@@H](CO)NCCN[C@@H](CC)CO` [ETHAMBUTOL], in assay [1], the MBEC was over 256 µg/mL.

As for `CN[C@H](CC(C)C)C(=O)N[C@H]1C(=O)N[C@@H](CC(N)=O)C(=O)N[C@H]2C(=O)N[C@H]3C(=O)N[C@H](C(=O)N[C@H](C(=O)O)c4cc(O)cc(O)c4-c4cc3ccc4O)[C@H](O)c3ccc(c(Cl)c3)Oc3cc2cc(c3O[C@@H]2O[C@H](CO)[C@@H](O)[C@H](O)[C@H]2O[C@H]2C[C@](C)(N)[C@H](O)[C@H](C)O2)Oc2ccc(cc2Cl)[C@H]1O` [VANCOMYCIN], the inhibition entry in assay [2] was “Active”. In addition, the results for the Ratio (in assay [3]; in assay [5]; in the assay on Bacillus subtilis [15]) were 3.9, 62.5 and 15.6, respectively. Also, the MIC with Mycobacterium avium [4] is over 256 µM; in the assay on Bacillus subtilis [6] it was 0.25 µM (≈ 0.362 µg/mL); in assay [8], 8 µM (≈ 11.6 µg/mL); in assay [10], 0.25 µM (≈ 0.362 µg/mL); with Mycobacterium avium [11], 64 µM (≈ 92.8 µg/mL); in the assay on Mycobacterium kansasii it was 24 µM (≈ 34.8 µg/mL). Moreover, the MIC in assay [12] was 2 µM; in assay [16], 3 µM; in assay [17] it was 64 µM (≈ 92.8 µg/mL). Moreover, the MBEC in [1] was 64 µM. The BBC in [7] came to 0.5 µM. Further, in assay [9], the Activity is reported as over 95%. The “fractional inhibitory concentration index (FICI)” value in [13] was found to be 0.28; in assay [14] it was 0.17.

On to `CO[C@H]1/C=C/O[C@@]2(C)Oc3c(C)c(O)c4c(O)c(c(/C=N/N5CCN(C)CC5)c(O)c4c3C2=O)NC(=O)/C(C)=C\C=C\[C@H](C)[C@H](O)[C@@H](C)[C@@H](O)[C@@H](C)[C@H](OC(C)=O)[C@@H]1C` [RIFAMPIN], for which the MBEC in [1] amounted to 156 µM.
